According to patent US11535680B2, “Targeting metastasis stem cells through a fatty acid receptor (CD36)” (FUNDACIÓ INSTITUT DE RECERCA BIOMÈDICA (IRB BARCELONA), priority 2015, dated 2022):

Experiments:
OSCC cells = OSCC cells exposed in culture to palmitic acid, CD36+ cells by flow cytometry; type: cell-based, human; details: 2 days, 0.4 mM palmitic acid
Protocol: All cells were cultured in a humidified incubator at 37° C. with 5% CO2. SCC-25 (ATCC^R CRL-168™) and patient-derived cells (VDH-00, VDH-01 and VDH-02) were grown in keratinocyte serum-free media (KSFM, GIBCO) supplemented with 5 μg ml^−1 penicillin/streptomycin, 0.025 mg ml^−1 bovine pituitary extract and 0.2 μg ml^−1 of hEGF. JHU-029 cells (The Johns Hopkins University) were grown in RPMI (GIBCO) supplemented with 5 μg ml^−1 penicillin/streptomycin and 10% foetal bovine serum (FBS; GIBCO). FaDu (ATCC^R HTB-43™) and Detroit (ATCC^R CCL138™) cells were grown in EMEM (LONZA) supplemented with 5 μg ml^−1 penicillin/streptomycin and 10% FBS (GIBCO). MCF-7 cells (ATCC^r HTB-22™) were grown in EMEM (LONZA) supplemented with 5 mg ml^−1 penicillin/streptomycin, 0.01 mg ml^−1 human recombinant insulin and 10% FBS (GIBCO). The 501mel human cell line (kindly provided by Dr. Claudia Wellbrock, Manchester Cancer Research Centre, The University of Manchester, UK) was grown in DMEM supplemented with 5 mg ml^−1 penicillin/streptomycin and 10% FBS (GIBCO). HNACFS (Head and Neck tumour associated fibroblasts) were grown in DMEM supplemented with 5 mg ml^−1 penicillin/streptomycin, 10% FBS (GIBCO) and 1× insulin transferrin selenium G supplement (Invitrogen). OP9 cells were cultured and differentiated to adipocytes as previously described (Wolins et al., 2006). […]

SCC25 tumour cells = assay: Transplants of palmitic acid-treated OSCC cells; type: in vivo, mouse; details: cells treated in culture before transplant
Protocol: NOD scid gamma (NSG) (NOD.Cg-Prkdc^scid Il2rg^tm1Wjl/SzJ) mice were purchased from Charles River and crossed in-house. All mice were housed under a regimen of 12 h light/12 h dark cycles and SPF conditions, and all procedures were evaluated and approved by the CEEA (Ethical Committee for Animal Experimentation) from the Government of Catalunya. For establishing patient-derived tumour cells, tumours were implanted subcutaneously into NOD scid gamma mice immediately after tumour resection from the patient. Once the tumours had grown, they were collected, disaggregated, and tumour cells were FACS sorted and cultured as described below. For 5-bromo-2-deoxyuridine (BrdU) labelling experiments, mice were injected intraperitoneally with a single dose of 100 μg g^−1 BrdU (Invitrogen) and then analysed at 24 h. SCC intra-tongue injection was performed as previously described (Oskarsson et al., 2014; Nieman et al., 2011). Briefly, mice were anesthetized by intraperitoneal injection with a mixture of 50 mg per kg of ketamine and 0.5 mg per kg of medetomidin, and SCC cells resuspended in 30 μl PBS were injected into each mouse tongue with a BD ultra-fine 6 mm needle. For intravenous cell injection, mice were anesthetized with continuous administration of isofluorane gas and were injected by retro-orbital injection with 100,000 cells in 100 μl PBS. Mice were monitored for the luciferase bioluminescent signal immediately after injection (T0) and once weekly thereafter with a Xenogen IVIS Imaging System-100 (Caliper Life Sciences). Briefly, animals were injected by retro-orbital injection with 50 μl of D-luciferin (Promega) diluted in 1×PBS at 5 mg ml^−1. Continuous administration of isofluorane gas was provided to ensure anesthetizing animals during imaging. Data was quantified with the Living Image software version 4.4 (Caliper Life Sciences). Quantifications were calculated with unsaturated pixels. Color scale minimum and maximum values are shown in pictures.
All cells were cultured in a humidified incubator at 37° C. with 5% CO2. […]

OSCC cell lines = assay: shRNA-mediated CD36 depletion in orthotopic OSCC xenografts; type: in vivo, mouse; details: FaDu cells
Protocol: NOD scid gamma (NSG) (NOD.Cg-Prkdc^scid Il2rg^tm1Wjl/SzJ) mice were purchased from Charles River and crossed in-house. All mice were housed under a regimen of 12 h light/12 h dark cycles and SPF conditions, and all procedures were evaluated and approved by the CEEA (Ethical Committee for Animal Experimentation) from the Government of Catalunya. For establishing patient-derived tumour cells, tumours were implanted subcutaneously into NOD scid gamma mice immediately after tumour resection from the patient. Once the tumours had grown, they were collected, disaggregated, and tumour cells were FACS sorted and cultured as described below. For 5-bromo-2-deoxyuridine (BrdU) labelling experiments, mice were injected intraperitoneally with a single dose of 100 μg g^−1 BrdU (Invitrogen) and then analysed at 24 h. SCC intra-tongue injection was performed as previously described (Oskarsson et al., 2014; Nieman et al., 2011). […] Mice were monitored for the luciferase bioluminescent signal immediately after injection (T0) and once weekly thereafter with a Xenogen IVIS Imaging System-100 (Caliper Life Sciences). […] Data was quantified with the Living Image software version 4.4 (Caliper Life Sciences). Quantifications were calculated with unsaturated pixels. […]

CCCCCCCCCCCCCCCC(=O)O [PA, palmitic acid]
percentage of CD36+ cells in culture (OSCC cells): robustly induced | inoculated mice with lung metastasis (SCC25 tumour cells): 10% | primary tumour growth (SCC25 tumour cells): without any effect | size and frequency of the LN metastasis (SCC25 tumour cells): significantly boosted

shRNACD36 #99: lentiviral shRNA targeting CD36 (Sigma Aldrich), SEQ ID NO: 2 (CCGACGTTAATCTGAAAGGA)
lung metastasis (ability to colonize the lungs) (OSCC cell lines): absent
